Data taken from patent publication US10030064B2, “Mammalian cell culture processes for protein production” (priority 2009, dated 2018).

Key:
Type in all cases: cell-based, Chinese hamster
[1] = test system: CHO cell line with CTLA4Ig secretion; test: Shake flask culture of CHO cell line secreting CTLA4Ig: VCD and viability (Example 4)
Protocol: The CHO cell line used in this study was originally subcloned from DG44 parental cells and cultured in a proprietary chemical-defined growth medium.
The experiments were carried out in 250-mL shake flasks (VWR international) with starting volumes of 100 mL and initial cell densities of 6×10^5 cells/mL. The cultures were placed on a shaker platform (VWR international) at 150 rpm and maintained at 37° C. and 6% CO2 for ten days. The cultures were sampled daily and the pH was adjusted as needed using 1M sodium carbonate and fed with glucose and glutamine every two days in order to maintain them at adequate levels. […] Cell density and viability were measured offline using a Cedex automated cell counter (Innovatis AG, Bielefeld, Germany). Culture pH and concentrations for glucose and glutamine were measured off-line using a Bioprofile Analyzer 400 (Nova Biomedical Corporation, Waltham, Mass.). Supernatants from culture harvests were collected for analysis of sialic acid content and HMW level.
Cell viability for the untreated cultures decreased rapidly after Day 6 (FIG. 16B) and percent viability on day 10 was only 64.5%.

[2] = test system: GILZ (glucocorticoid-induced leucine zipper); test: qRT-PCR of GILZ gene expression in CHO cells; conditions: 1 μM DEX added day 2
Protocol: Purified RNA was treated with RNasefree DNaseI (Qiagen) and then used as a template to synthesize the first-strand cDNA using RT^2 First Strand Kit (SA Biosciences, Frederick, Md.). Expression of GILZ was quantitatively determined using GILZ specific TaqMan MGB probe (6-FAM-[…]) and primers (Forward: 5-[…]-3 and Reverse: 5-[…]-3). 20 ng of cDNA was amplified using 900 nM primers and 250 nM probe in 1× TaqMan Fast Universal PCR Master Mix (Applied Biosystems, Carlsbad, Calif.). Reactions were run in triplicate on the Applied Biosystems 7500 Fast Real-Time PCR System using the universal cycling parameters (20 s 95° C., 40 cycles of 3 s 95° C., 30 s 60° C.). Parallel reactions were set up on the same plate analyzing β-Actin in each sample as an endogenous control. The threshold cycle of each gene was normalized against the threshold cycle of “housekeeping gene” […]. Normalized changes in gene expression with respect to the control were calculated using delta-delta threshold cycle method (Livak and Schmittgen, 2001).
GILZ was analyzed using qRT-PCR to validate the gene expression profiles obtained by microarray analysis. […] Parallel reactions were set up on the same plate analyzing β-Actin in each sample as an endogenous control.

CHO cells [3] = test: Fed-batch 10-L bioreactor CHO culture: VCD, viability, titer
Protocol: Bioreactor experiments were performed in 10-L bioreactors (Sartorius Stedim Biotech, France) with starting working volumes of 5 L. Agitation, pH and dissolved oxygen were controlled at 150 rpm, 7.05, and 50% air saturation, respectively. Temperature was initially controlled at 37° C. and was shifted to lower temperature during the culture to extend the culture viability. The bioreactors were operated in a batch fed mode and were fed daily starting on day 3 with the proprietary feed medium to maintain adequate concentrations for glucose and other nutrients. Samples were taken during the cell culture process and analyzed for cell density, cell viability, substrates and metabolites.
(§1) The eluted protein was quantified using a 10-level standard curve.
Different from shake flask runs, bioreactor runs were extended to 14 days, the culture temperature was shifted to a lower temperature during the late exponential phase of the culture, and a proprietary feeding medium was used instead of feeding only glucose and glutamine.

CHO cells [4] = test: Shake flask CHO culture in serum free medium: viable cell density, viability, growth rate, productivity (Example 3)
Protocol: The CHO cell line used in this study was subcloned from DG44 parental cells and cultured in a proprietary chemically-defined growth medium.
The experiments were carried out in 250-mL shake flasks (VWR international) with starting volumes of 100 mL and initial cell densities of 6×10^5 cells/mL. The cultures were placed on a shaker platform (VWR international) at 150 rpm and maintained at 37° C. and 6% CO2 for ten days. The cultures were sampled daily and the pH adjustment using 1M sodium carbonate, and fed with glucose and glutamine every two days in order to maintain them at certain levels. Cell density and viability were measured off-line a Bioprofile Analyzer 400 (Nova Biomedical Corporation, Waltham, Mass.).
as §1

[5] = test system: CHO cells secreting an IgG-fusion protein; test: Shake flask CHO culture: SEC-HPLC of high molecular weight (HMW) species in secreted IgG-fusion protein
Protocol: The CHO cell line used in this study was originally subcloned from DG44 parental cells and cultured in a protein-free proprietary growth medium. The host cells were genetically engineered to secrete an IgG-fusion protein under the control of CMV promoter.
The experiments were carried out in 250-mL shake flasks (VWR international) with starting volumes of 100 mL and initial cell densities of 6×10^5 cells/mL. Shake flasks were placed on a shaker platform (VWR international) at 150 rpm rotating speed. Cells were cultured under standard humidified condition at 37° C. and 6% CO2, for a ten-day duration with daily pH adjustment using 1M sodium carbonate, and fed with glucose and glutamine every two days in order to maintain them at certain level. Cell density, cell viability and substrates/metabolites were offline-analyzed by an automated cell counting system Cedex (Innovatis AG, Bielefeld, Germany) and a Bioprofile Analyzer 400 (Nova Biomedical Corporation, Waltham, Mass.). Supernatant from each culture harvest was collected for SEC analysis.
The main components of HMW species were dimers and trimers formed covalently or non-covalently and categorically considered to be protein aggregates.

[6] = day 14, 1 μM DEX added on day 2
[7] = day 14, 1 μM DEX added on day 7
[8] = 10 μM DEX added two days after inoculation
[9] = treatment concentration 0.1 μM, added two days after inoculation
[10] = treatment concentration 1 μM, added two days after inoculation
[11] = treatment concentration 10 μM, added two days after inoculation

## C[C@@H]1C[C@H]2[C@@H]3CCC4=CC(=O)C=C[C@]4(C)[C@@]3(F)[C@@H](O)C[C@]2(C)[C@@]1(O)C(=O)CO [DEX, dexamethasone]
[1]; 0.001 μM DEX added day 2
  final cell viability (day 10): 75.5%
[1]; 10 μM DEX added day 2
  final cell viability (day 10): 82.3%
[2]; day 5 samples
  normalized expression profile change of GILZ (qRT-PCR): 7.66±1.08
[2]; day 8 samples
  normalized expression profile change of GILZ (qRT-PCR): 10.48±2.16
CHO cells [3]; 1 μM DEX added on either day 2 or day 7, day 8
  maximum cell density: approximately 8.3 ×10^6 cell/mL
CHO cells [3]; day 6, all conditions
  Cell viability: 94%
CHO cells [3]; day 7, prior to the maximum VCD
  Normalized protein titer: approximately 5.5
CHO cells [3]; day 14
  increase of day 14 normalized titer vs without DEX: 20%
CHO cells [3]; [6]
  Final VCD: 4.1 ×10^6 cell/mL
  percent viability: 55%
CHO cells [3]; [7]
  Final VCD: 3.5 ×10^6 cell/mL
  percent viability: 39%
CHO cells [3]; day 14, both bioreactors with DEX
  harvest normalized titer: 12.5
CHO cells [4]; 0.01 μM DEX added two days after inoculation
  final cell viability (day 10): 53.1%
CHO cells [4]; 0.1 μM DEX, with 1 μM RU-486
  percent increase of cell viability induced by DEX: 4.7%
CHO cells [4]; 0.1 μM DEX, without RU-486
  percent increase of cell viability induced by DEX: 30.5%
CHO cells [4]; 1 μM DEX added day 2
  maximum specific productivity (normalized): 7.0±0.6 ×10^−9
CHO cells [4]; 1 μM DEX added day 2, same for all cultures
  normalized volumetric productivity: 6.5
CHO cells [4]; 1 μM DEX added day 2, the day after DEX addition
  reduction in cell growth rates compared to control: ~30%
CHO cells [4]; 1 μM DEX added on day 0
  viability on day 10: 63%
CHO cells [4]; 1 μM DEX added on day 2
  viability on day 10: 68%
CHO cells [4]; 1 μM DEX added on day 4
  viability on day 10: 72%
CHO cells [4]; 1 μM DEX added on day 6
  viability on day 10: 74%
CHO cells [4]; 1 μM DEX, with 1 μM RU-486
  percent increase of cell viability induced by DEX: 5.7%
CHO cells [4]; 1 μM DEX, without RU-486
  percent increase of cell viability induced by DEX: 32.6%
CHO cells [4]; [8]
  Peak VCD: 6.5 ×10^6 cell/mL
  final cell viability (day 10): 64.0%
CHO cells [4]; [9]
  Final VCD: 7.64 ×10^6 cells/mL
  Peak VCD: 7.99 ×10^6 cells/mL
  Viability (final, day 10): 72.3%
CHO cells [4]; [10]
  Final VCD: 8.40 ×10^6 cells/mL
  Peak VCD: 9.02 ×10^6 cells/mL
  Viability (final, day 10): 75.8%
CHO cells [4]; [11]
  Final VCD: 7.38 ×10^6 cells/mL
  Peak VCD: 7.49 ×10^6 cells/mL
  Viability (final, day 10): 82.3%
[5]; 0.1 μM DEX alone
  decrease of percentage of HMW species: approximately 17%
[5]; 1 μM DEX added day 2, supernatant day 10, vs control
  reduction of protein aggregation (percentage of HMW species): 15%
